We go through 7 compounds from US20110091574A1, “TREATMENT OF ADENOCARCINOMA EXPRESSING LKB1 WITH MTOR INHIBITOR IN COMBINATION WITH COX2 INHIBITOR” (Catholic Healthcare West, priority 2008, published 2011).

Series [1] relates to H23 cells. As to the kind of experiment: Immunoblot of cleaved PARP. The note with it: 20 mM 2-DG, 24 hours. It counts as cell-based, human. The procedure:
(§1) FIG. 4 (in panels A through F) illustrates in graphs and immunoblots that 2-DG induces apoptosis in LKB1 null NSCLC cells. […] Bars represent standard error and the studies were repeated twice. FIG. 4B is an immunoblot of cleaved PARP. H23 and H2009 cells were treated for 24 hours with 20 mM of 2-DG. […] GAPDH was used as a loading control. FIG. 4C is an immunoblot of LKB1 and KDLKB1 in H23 cells after retroviral infection and puromycin selection. GAPDH was used as a loading control. FIG. 4D is an immunoblot that illustrates 2-DG activation of LKB1 in H23-LKB1, but not H23-KDLKB1 cells. The blot was stripped and probed for AMPK as a loading control. The blot represents two independent studies. FIG. 4E is a graph that illustrates that LKB1, but not KDLKB1 prevents activation of caspase 3 and 7 in H23 cells. H23-LKB1 and H23-KDLKB1 cells were treated for 24 hours with 20 mM 2-DG before analysis as described hereinafter. Bars represent standard error, and the study was repeated twice. FIG. 4F is an immunoblot of cleaved PARP in H23-LKB1 and H23-KDLKB1 after treatment with 20 mM of 2-DG for 24 hours. Blot is representative of two independent studies. GAPDH was used as a loading control. […]
(§2) Cells were incubated on ice for 30 minutes with a lysis buffer containing 10 mM Tris-HCL, 150 mM NaCl and 1% IGEPAL (Sigma). […] Protein concentration was determined using the Bio-Rad DC protein kit. […]

Another series has as its system mTOR in LKB1 null cells. Description: mTOR activation in cells treated with 2-DG. The note with it: LKB1 null cells treated with 2-DG. It counts as cell-based.
The test system of series [2] is H23-LKB1 cells. Description: Immunoblot of AMPK phosphorylation after 2-DG. It counts as cell-based, human. To be noted: H23-LKB1 cells treated with 2-DG. Here is the method: as §1, §2
A further series concerns H23-KDLKB1 cells. As to the kind of experiment: Immunoblot of AMPK phosphorylation after 2-DG. It counts as cell-based, human. To be noted: H23-KDLKB1 cells treated with 2-DG. Here is the method:
as §1, §2
Background: Immunoblotting shows a protein as a band on a membrane.

For series [3], the system named is H23 cells. As to the kind of experiment: Caspase 3/7 activity (Caspase-Glo 3/7). It counts as cell-based, human. To be noted: H23 (LKB1 null); increasing doses of 2-DG, 24 hours. The procedure:
as §1, with “hours.” for “hours. Blot is representative of two independent studies. GAPDH was used as a loading control.”
(§3) Cell lines were plated at a density of 5000 cells per well in 96 well plates. […] Activity of caspases 3 and 7 were determined using a Caspase-Glo® 3/7 kit (Promega) according to manufacturer's instructions and scanned using a Beckman Coulter DTX 880 plate reader. […]

The test system of series [4] is LKB1 positive lines (H2009). As to the kind of experiment: Microarray gene expression profiling of 2-DG-treated cells. It counts as cell-based, human. Here is the method: (§4) To test this hypothesis, apoptosis-related transcripts of H23 (LKB1 null) and H2009 (LKB1 positive) cells were compared by treatment with either low (2.5 mM) or high dose (20 mM) 2-DG or vehicle (PBS) for 6 hours followed by microarray-based assessment of gene expression. […] LKB1 negative (H23, H2122) and positive (H2009, H441) NSCLC cell lines were treated with decreasing doses of 2-deoxyglucose (2-DG) for 72 hours. Cell viability, markers of apoptosis (e.g. PARP, Caspases), and gene expression profiles were evaluated from treated versus untreated samples. Total RNA was extracted from cells using TRIzol (Invitrogen) followed by RNeasy Mini Kit purification (Qiagen) according to manufacturers specifications. Spectrophotometric analysis was performed on a NanoDrop ND-1000 (Thermo Scientific) and RNA quality was assessed on a BioAnalyzer 2100 (Agilent) using strict RNA integrity QC cutoffs. 500 ng of RNA was labeled and hybridized (in duplicate) to Agilent 4×44K Whole Human Genome One-Color Oligo Microarrays according to manufacturer specifications. Slides were scanned using the Agilent Microarray Scanner (model […]) and processed with Agilent's Feature Extraction software (v. 9.5.1). Comparative and statistical analyses for gene expression profiles, were carried out using GeneSpring 7.3. Apoptosis-related genes of interest were identified by key word search (“apoptosis”) followed by unsupervised hierarchical clustering. Significance values were determined by comparing expression of all LKB1+ samples (grouped) to all LKB1- samples (grouped) for each gene using the Student's t-test and a p<0.05 cutoff after multiple testing correction using the false discovery rate (FDR) method.

For series [5], the system named is LKB1 negative cell lines (H23). Described as above. It counts as cell-based, human. The procedure: as §4
In series [6] the test system is AMPK phosphorylation in H2009, H441, H23, H2122 NSCLC cell lines. Description: Immunoblot of AMPK Thr172 phosphorylation after 2-DG. It counts as cell-based, human. To be noted: 20 mM 2-DG, 1 hour; LKB1 positive H2009, H441 vs LKB1 negative H23, H2122. The procedure: (§5) FIG. 3 (in three panels, A, B and C) illustrates the effect of 2-deoxyglucose (2-DG) in LKB1 null and LKB1 expressing NSCLC cells. FIG. 3A is an immunoblot of LKB1 in H23, H2122, H2009 and H441 NSCLC cell lines. GAPDH was used as a loading control. FIG. 3B illustrates an immunoblot showing the induction of AMPK phosphorylation by 2-DG. LKB1 positive (H2009, H441) and LKB1 negative (H23, H2122) cell lines were treated with 20 mM of 2-DG for 1 hour. Protein lysates were immunoblotted with an antibody specific to phosphorylated Thr172 AMPK. It is noted that 2-DG induces phosphorylation at Thr172 only in LKB1 expressing cells. Both AMPK and GAPDH were used as loading controls. The blot is representative of two independent experiments. C-LKB1 null NSCLC cell are more sensitive to 2-DG. […] NSCLC cell lines were treated for 48 hours with indicated concentrations of 2-DG. Bars represent standard error.
To investigate the role of LKB1 in the effectiveness of 2-DG treatment, four NSCLC cell lines (H23, H2122, H441, H2009) were screened by immunoblot for LKB1 expression (FIG. 3A).
as §2

Series [7] deals with H23-LKB1 cells. As to the kind of experiment: Caspase 3/7 activity (Caspase-Glo 3/7). It counts as cell-based, human. To be noted: H23 re-expressing LKB1; 20 mM 2-DG, 24 hours. Here is the method:
as §1, with “hours.” for “hours. Blot is representative of two independent studies. GAPDH was used as a loading control.”
as §3

The subject of series [8] is LKB1 positive NSCLC cells (H2009, H441). As to the kind of experiment: Cell viability after 2-DG (CellTiter Blue). To be noted: 20 mM 2-DG, 48 hours. It counts as cell-based, human. Here is the method:
as §5
(§6) Because LKB1-AMPK signaling can affect cell growth or cell number, the number of viable LKB1 null and LKB1 positive cells were compared after treatment with 2-DG for a range of concentrations, over time.
(§7) LKB1 negative (H23, H2122) and positive (H2009, H441) NSCLC cell lines were treated with decreasing doses of 2-deoxyglucose (2-DG) for 72 hours. Cell viability, markers of apoptosis (e.g. PARP, Caspases), and gene expression profiles were evaluated from treated versus untreated samples.
(§8) Cell lines were plated at a density of 2500 cells per well in 96 well plates. After attachment, 2-DG was diluted in media at indicated concentrations and added to wells. Treatment was carried out for 48 hours in standard cell culture conditions, before cell viability was assessed using the CellTiter® Blue kit (Promega) according to manufacturer's instructions and read on a Beckman Coulter DTX 880. The percentage of viable cells was determined by normalizing treated samples to vehicle (PBS).
Background: The colour change of resazurin is a common sign of viable cells or microbes.

The test system of series [9] is LKB1 null NSCLC cells (H23, H2122). As to the kind of experiment: Cell viability after 2-DG (CellTiter Blue). Format: cell-based, human. To be noted: 48 hours. Here is the method: as §5, §6, §7, §8
Series [10] relates to H23-LKB1 cells. Description: Immunoblot of cleaved PARP. It counts as cell-based, human. The note with it: H23 re-expressing LKB1; 20 mM 2-DG, 24 hours. Here is the method: as §1, §2
For another series, the system named is COX-2 and COX-1 enzymes. To be noted: cited from earlier work; for inhibition of COX-2 relative to COX-1: in vitro.
For series [11] the following is noted: cited from earlier work.
For series [12] the following is noted: human, single oral dose of 200 mg; cited from earlier work.

For `O=CC[C@@H](O)[C@H](O)[C@H](O)CO` [2-DG, 2-deoxyglucose], in the series on H23 cells [1], the “cleaved PARP (marker of apoptosis)” value is “present”. For the same compound, the mTOR activation entry in the series with mTOR in LKB1 null cells was “increased mTOR activation”. For the same compound, the figures for the “phosphorylation of AMPK” value in the series with H23-LKB1 cells [2] and in the series on H23-KDLKB1 cells were “capable of phosphorylating AMPK” and “does not”, respectively. Besides, the “activation of caspases 3 and 7” value in the series with H23 cells [3] was “dose dependent activation of caspases 3 and 7”. In addition, the “expression of pro-apoptotic markers” value in series [4] was “no changes in expression”; in series [5] (LKB1 negative cell lines, 2-DG-treated) it was “increase in the expression of pro-apoptotic markers”. The “expression of BCL-2 and BCL-2 interacting proteins” value in series [5] (H23 (LKB1 null), 2.5 mM or 20 mM 2-DG, 6 hours, microarray) is on record as “dose dependent changes”. Moreover, the “activation of AMPK (phosphorylation at Thr172)” value in series [6] was “induced LKB1 dependent activation of AMPK”. Further, the “2-DG induced activation of caspase 3 and 7” value in the series with H23-LKB1 cells [7] was “prevented 2-DG induced activation of caspase 3 and 7”. Moreover, the cell viability entry in series [8] is “significant decrease in cell viability”; in series [9] (LKB1 negative cells, 20 mM 2-DG), “significant decrease in cell viability”. For the same compound, in series [9] (LKB1 null cells, all doses, lowest 2.5 mM, p=5.73×10^−13), the “cell viability compared to LKB1 positive cells” value is on record as “significant decrease in cell viability for all doses tested”. For the same compound, in the series with H23-LKB1 cells [10], the “cleavage of PARP” value is listed as “prevented cleavage of PARP”.

With `CC(=O)Oc1ccccc1C(=O)O` [aspirin], the “inhibition of COX-2 relative to COX-1” value with COX-2 and COX-1 enzymes is given as “about equipotent”.

One may read the Cmax as the maximum level reached in the sampled fluid or tissue. `Cc1ccc(-c2cc(C(F)(F)F)nn2-c2ccc(S(N)(=O)=O)cc2)cc1` [celecoxib]: the cardiovascular side effects entry in series [11] (long-term use at 400 mg once daily, or 200 mg or 400 mg twice daily) is recorded as “severe cardiovascular side effects”. Moreover, the peak concentration (Cmax) in [12] was 709 ng/mL.

Consider `Cc1ccc(-c2ncc(Cl)cc2-c2ccc(S(C)(=O)=O)cc2)cn1` [etoricoxib], for which the “relative degree of selectivity for COX-2 over COX-1 (rank order)” value in the series on COX-2 and COX-1 enzymes is “lumiracoxib=etoricoxib>valdecoxib=rofecoxib>>celecoxib”.

Regarding `CC(C)Cc1ccc(C(C)C(=O)O)cc1` (stereo not shown) [ibuprofen], in the series with COX-2 and COX-1 enzymes, the “inhibition of COX-2 relative to COX-1” value is “sevenfold”.

With `Cc1ccc(Nc2c(F)cccc2Cl)c(CC(=O)O)c1` [lumiracoxib], the “relative degree of selectivity for COX-2 over COX-1 (rank order)” value in the series on COX-2 and COX-1 enzymes is recorded as “lumiracoxib=etoricoxib>valdecoxib=rofecoxib>>celecoxib”.

Regarding `CS(=O)(=O)c1ccc(C2=C(c3ccccc3)C(=O)OC2)cc1` [rofecoxib], in [11] (trial to prevent adenomas), the “increased risk of cardiovascular toxicities” value is given as “two-fold”. The “potency at inhibiting COX-2 relative to COX-1” value with COX-2 and COX-1 enzymes was “about 300 times”.
